The target of series [1] is T1, CLsoDHDPS (dihydrodipicolinate synthase) (Candidatus Liberibacter solanacearum, UniProt A0A0F4VK59).
T1 construct: gene dapA
In kind it is binding.

The target in series [2] is T1, CLsoDHDPS (dihydrodipicolinate synthase). As to the kind of experiment: biochemical.
The target is the same in series [3]. Briefly: biochemical. This is another data set of the same source.
Another series concerns N[C@@H](CC=O)C(=O)O. As to the kind of experiment: purified protein.

One may read the Ki as a dissociation constant, usually derived from enzyme kinetics or from competition with a known ligand. By Kd is commonly meant the constant that tells how readily two partners part at equilibrium. High values mean a looser complex, low ones a tighter complex. One may read the Km as the substrate concentration at which the rate is half of its maximum. Broadly, the kcat is the maximal rate divided by the concentration of active sites. Usually kcat/Km stands for the second-order rate constant that governs catalysis at low substrate concentration.

T1 sequence (A0A0F4VK59 1-296): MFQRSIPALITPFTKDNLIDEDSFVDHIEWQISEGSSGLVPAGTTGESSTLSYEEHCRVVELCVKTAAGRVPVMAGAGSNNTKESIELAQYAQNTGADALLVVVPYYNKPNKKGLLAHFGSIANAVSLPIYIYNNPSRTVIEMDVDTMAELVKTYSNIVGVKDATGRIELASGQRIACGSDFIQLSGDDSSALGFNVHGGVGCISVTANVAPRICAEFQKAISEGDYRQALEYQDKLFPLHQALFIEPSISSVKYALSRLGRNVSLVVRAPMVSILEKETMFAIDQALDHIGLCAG

On to `O=CCCC(=O)O` [SSA, succinic semi‐aldehyde], for which the “X-ray crystal structure (1.93 Å) with pyruvate” value in series [1] is “continuous density between Lys162, pyruvate, and succinic semi‐aldehyde such that the carbon–carbon bond between these substrates has formed”.

For the molecule `NCCCC[C@H](N)C(=O)O` [lysine], the inhibition constant (Ki) in series [2] was found to be 121 ± 5 µM.

In turn, `CC(=O)C(=O)O` [pyruvate] showed an equilibrium dissociation constant (Kd) in series [3] of 2 ± 0.7 µM.

Turning to “CLsoDHDPS (dihydrodipicolinate synthase) (Candidatus Liberibacter solanacearum)”, in the series with N[C@@H](CC=O)C(=O)O, the Km came to 33 ± 3 µM, the kcat turned out to be 6 ± 0.2 s⁻¹ and the specificity constant (kcat/Km) was found to be 180000 M⁻¹ s⁻¹.

The values above are taken from publication PMC11201819 (Protein Science : A Publication of the Protein Society, 2024).
